According to US10933062B2, “Analgesic therapeutic and method, 1-(3-4(((1 R,3S,5S)-adamantan-1-yl)(phenyl)methyl)propyl)-4-methylpiperazine and salts thereof” (ANAVEX LIFE SCIENCES CORP., priority 2016, dated 2021):
Several values for one entry are separate records, joined by “and”; a condition that tells them apart may be missing. Equal entries are not always repeated.

Legend:
[1] = tested on: model of peripheral mononeuropathy (Bennett model) in rats; assay: Chronic constriction injury (Bennett model) of peripheral mononeuropathy, paw pressure test; type: in vivo
[2] = tested on: model of TNBS-induced chronic colonic hypersensitivity in rats; assay: TNBS-induced chronic colonic hypersensitivity, colorectal balloon distension threshold; conditions: for % antihypersensitivity activity / Colonic distension threshold (mmHg): TNBS 50 mg/kg
[3] = tested on: patients with nociceptive or neuropathic pain; assay: Patient examples 1-5: oral AV1066, patient-reported pain control; type: in vivo, human; conditions: Example 1, bone fracture pain (nociceptive), oral 5 mg/kg/day, days 3, 7, 16, 28
Method: A patient or subject (the terms are used interchangeably) presents with a fractured collar bone arising from a bicycling accident. They are complaining of significant shoulder pain. The patient's pain is classified according to the
International Association for the Study of Pain as nociceptive. They are orally administered AV1066 5 mg/kg/day. They are examined at days 3, 7, 16, and 28. At each visit the patient is assessed for pain control compared with the previous visit.
A patient presents with a second […]. They are complaining of significant pain. The patient's pain is classified according to the International Association for the Study of Pain as nociceptive. They are orally administered the phosphate salt of AV1066 10 mg/kg daily in two doses. They are examined at 12 hours, and daily thereafter for 4 days. At each visit the patient is assessed for pain control compared with the previous visit.
A patient presents with a benign tumor mass compressing their left shoulder causing movement pain. The patient's pain is classified according to the International Association for the Study of Pain as nociceptive. They are orally administered the sodium salt of AV1066 30 mg/kg/day in two doses. They are examined daily thereafter at 3, 7, and 28 days. At each visit the patient is assessed for pain control compared with the previous visit. […]

[4] = tested on: model of peripheral mononeuropathy (Bennett model) in rats; conditions: typical values given for comparison; cited from earlier work
[5] = injured paw, TO (pre-drug), 10 mg/kg p.o.
[6] = injured paw, TO (pre-drug), 30 mg/kg p.o.
[7] = injured paw, TO (pre-drug), 100 mg/kg p.o.
[8] = injured paw, TO + 30 min, 10 mg/kg p.o.
[9] = injured paw, TO + 30 min, 30 mg/kg p.o.
[10] = injured paw, TO + 30 min, 100 mg/kg p.o.
[11] = injured paw, TO + 60 min, 10 mg/kg p.o.
[12] = injured paw, TO + 60 min, 30 mg/kg p.o.
[13] = injured paw, TO + 60 min, 100 mg/kg p.o.
[14] = injured paw, TO + 120 min, 10 mg/kg p.o.
[15] = injured paw, TO + 120 min, 30 mg/kg p.o.
[16] = injured paw, TO + 120 min, 100 mg/kg p.o.
[17] = injured paw, TO + 180 min, 10 mg/kg p.o.
[18] = injured paw, TO + 180 min, 30 mg/kg p.o.
[19] = injured paw, TO + 180 min, 100 mg/kg p.o.
[20] = single administration 10, 30, 100 mg/kg PO
[21] = injured paw, TO (pre-drug), 3 mg/kg s.c.
[22] = injured paw, TO + 30 min, 3 mg/kg s.c.
[23] = injured paw, TO + 60 min, 3 mg/kg s.c.
[24] = injured paw, TO + 120 min, 3 mg/kg s.c.
[25] = injured paw, TO + 180 min, 3 mg/kg s.c.

SMILES: CN1CCN(CCCc2ccc(C(c3ccccc3)C34CC5CC(CC(C5)C3)C4)cc2)CC1 [AV1066, 1-(3-4(((1R,3S,5S)-adamantan-1-yl)(phenyl)methyl)propyl)-4-methylpiperazine]
- difference in the nociceptive threshold vs. vehicle ([1]; 30 mg/kg dose, T=+30 minutes): 116 g
- anti-hyperalgesic effect ([1]; 30 mg/kg dose, T=+30 minutes, vs vehicle): 59%
- untoward effects ([1]; CCI study, 10, 30, 100 mg/kg PO): No untoward effects
- Nociceptive threshold ([1]; control paw, TO, 10 mg/kg p.o.): 366 ± 11.9 g
- Nociceptive threshold ([1]; control paw, TO, 30 mg/kg p.o.): 352 ± 15.8 g
- Nociceptive threshold ([1]; control paw, TO, 100 mg/kg p.o.): 354 ± 9.9 g
- % variation vs control paw [1, 5]: −54%
- % variation vs vehicle-treated group [1, 5]: −15%
- Nociceptive threshold [1, 5]: 170 ± 11.6 g
- % variation vs control paw [1, 6]: −45%
- % variation vs vehicle-treated group [1, 6]: −4%
- Nociceptive threshold [1, 6]: 192 ± 8.5 g
- % variation vs control paw [1, 7]: −49%
- % variation vs vehicle-treated group [1, 7]: −9%
- Nociceptive threshold [1, 7]: 182 ± 9.6 g
- % variation vs control paw [1, 8]: −32%
- % variation vs pre-drug threshold [1, 8]: 38%
- % variation vs vehicle-treated group [1, 8]: 19%
- Nociceptive threshold [1, 8]: 234 ± 11.2 g
- % variation vs control paw [1, 9]: −19%
- % variation vs pre-drug threshold [1, 9]: 63%
- % variation vs vehicle-treated group [1, 9]: 59%
- Nociceptive threshold ([1]; injured paw, TO + 30 min, 30 mg/kg p.o., 30 mg/kg): 312 g and 312 ± 15.5 g
- % variation vs control paw [1, 10]: −20%
- % variation vs pre-drug threshold [1, 10]: 64%
- % variation vs vehicle-treated group [1, 10]: 52%
- Nociceptive threshold [1, 10]: 298 ± 21.4 g
- % variation vs control paw [1, 11]: −29%
- % variation vs pre-drug threshold [1, 11]: 39%
- % variation vs vehicle-treated group [1, 11]: 6%
- Nociceptive threshold [1, 11]: 236 ± 11.5 g
- % variation vs control paw [1, 12]: −16%
- % variation vs pre-drug threshold [1, 12]: 43%
- % variation vs vehicle-treated group [1, 12]: 23%
- Nociceptive threshold [1, 12]: 274 ± 14.3 g
- % variation vs control paw [1, 13]: −11%
- % variation vs pre-drug threshold [1, 13]: 60%
- % variation vs vehicle-treated group [1, 13]: 32%
- Nociceptive threshold [1, 13]: 292 ± 17.2 g
- % variation vs control paw [1, 14]: −30%
- % variation vs pm-drug threshold [1, 14]: 27%
- % variation vs vehicle-treated group [1, 14]: 6%
- Nociceptive threshold [1, 14]: 216 ± 12.6 g
- % variation vs control paw [1, 15]: −21%
- % variation vs pm-drug threshold [1, 15]: 41%
- % variation vs vehicle-treated group [1, 15]: 32%
- Nociceptive threshold [1, 15]: 270 ± 11.6 g
- % variation vs control paw [1, 16]: −23%
- % variation vs pm-drug threshold [1, 16]: 44%
- % variation vs vehicle-treated group [1, 16]: 28%
- Nociceptive threshold [1, 16]: 262 ± 12.5 g
- % variation vs control paw [1, 17]: −23%
- % variation vs pre-drug threshold [1, 17]: 38%
- % variation vs vehicle-treated group [1, 17]: 9%
- Nociceptive threshold [1, 17]: 234 ± 15.5 g
- % variation vs control paw [1, 18]: −36%
- % variation vs pre-drug threshold [1, 18]: 1%
- % variation vs vehicle-treated group [1, 18]: −9%
- Nociceptive threshold [1, 18]: 194 ± 13.0 g
- % variation vs control paw [1, 19]: −27%
- % variation vs pre-drug threshold [1, 19]: 16%
- % variation vs vehicle-treated group [1, 19]: −1%
- Nociceptive threshold [1, 19]: 212 ± 15.8 g
- effect on nociceptive (pain) threshold of the affected paw, in words [1, 20]: dose-dependently restores the pain threshold lowered by chronic constriction injury
- time at which efficacy was apparent post-dose [1, 20]: 30 min
- time for which efficacy remained significant [1, 20]: 2 h
- max effect ([1]; whatever the dose): 59%
- % antihypersensitivity activity ([2]; 10 mg/kg p.o.): 26%
- Colonic distension threshold (mmHg) ([2]; 10 mg/kg p.o.): 30.3 ± 1.3 mmHg
- % antihypersensitivity activity ([2]; 30 mg/kg p.o.): 71%
- Colonic distension threshold (mmHg) ([2]; 30 mg/kg p.o.): 36.4 ± 1.3 mmHg
- untoward effects ([2]; TNBS study, single PO administration): No untoward effects
- patient-reported pain control [3]: tolerable and improved at each visit

SMILES: CN1CC[C@]23c4c5ccc(O)c4O[C@H]2[C@@H](O)C=C[C@H]3[C@H]1C5.Cl [Morphine HCl, reference compound]
- Nociceptive threshold ([1]; control paw, TO, 3 mg/kg s.c.): 349 ± 11.1 g
- % variation vs control paw [1, 21]: −47%
- % variation vs vehicle-treated group [1, 21]: −8%
- Nociceptive threshold [1, 21]: 184 ± 11.9 g
- % variation vs control paw [1, 22]: −11%
- % variation vs pre-drug threshold [1, 22]: 212%
- % variation vs vehicle-treated group [1, 22]: 194%
- Nociceptive threshold [1, 22]: 576 ± 46.8 g
- % variation vs control paw [1, 23]: −6%
- % variation vs pre-drug threshold [1, 23]: 212%
- % variation vs vehicle-treated group [1, 23]: 159%
- Nociceptive threshold [1, 23]: 576 ± 28.8 g
- % variation vs control paw [1, 24]: −11%
- % variation vs pm-drug threshold [1, 24]: 110%
- % variation vs vehicle-treated group [1, 24]: 90%
- Nociceptive threshold [1, 24]: 387 ± 40.4 g
- % variation vs control paw [1, 25]: −19%
- % variation vs pre-drug threshold [1, 25]: 31%
- % variation vs vehicle-treated group [1, 25]: 13%
- Nociceptive threshold [1, 25]: 242 ± 19.0 g

SMILES: NCC1(CC(=O)O)CCCCC1 [gabapentin]
- anti-hyperalgesic effect, typical range of non-opioid treatments [4]: 40-50%
